From publication PMC4978996 (Scientific Reports, 2016)
pIC50: −log10 of the molar value. Where “and” joins values, the source holds several entries; their conditions need not be identical. Equal values may be shown once.

Assays:
ChAT = tested on: ChAT; design: method as in literature; settings: ChAT inhibition, experimentally determined value taken from literature; ref literature; cited from earlier work
BuChE = molecular target: T1, BuChE (Homo sapiens, UniProt P06276); test: biochemical
T1 construct: a 1:400 diluted solution of a pooled human plasma sample was used; from tissue; host or cells: pooled human plasma
T1 sequence (P06276 29-602): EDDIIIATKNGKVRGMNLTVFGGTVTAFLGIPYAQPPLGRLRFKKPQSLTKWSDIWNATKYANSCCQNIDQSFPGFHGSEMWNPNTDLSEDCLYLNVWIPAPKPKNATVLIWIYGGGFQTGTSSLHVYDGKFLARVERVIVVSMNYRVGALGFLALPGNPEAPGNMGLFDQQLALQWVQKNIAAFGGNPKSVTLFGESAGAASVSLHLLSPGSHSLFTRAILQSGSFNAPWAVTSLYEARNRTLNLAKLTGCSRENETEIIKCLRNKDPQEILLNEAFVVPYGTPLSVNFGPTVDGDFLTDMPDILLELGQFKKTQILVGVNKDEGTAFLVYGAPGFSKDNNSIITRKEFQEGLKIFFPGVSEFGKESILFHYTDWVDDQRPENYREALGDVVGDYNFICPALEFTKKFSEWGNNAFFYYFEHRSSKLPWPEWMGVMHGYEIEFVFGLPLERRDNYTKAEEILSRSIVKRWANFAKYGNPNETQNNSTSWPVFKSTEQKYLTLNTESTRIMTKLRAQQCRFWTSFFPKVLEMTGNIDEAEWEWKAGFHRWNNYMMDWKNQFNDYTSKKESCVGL
Experimental: (§1) A modified version of Ellman’s colorimetric assay was used for the enzymatic activity of BuChE and AChE, as described previously. For BuChE activity, 50 μL/well of a 1:400 diluted solution of a pooled human plasma sample was used. For AChE activity, the 1:400 diluted pooled human plasma samples had been supplied with 50 ng/ml of purified AChE protein (Sigma). These were preincubated with 50 μL/wells of different concentrations of α-NETA for 30 minutes at room temperature. Then, 100 μL of a cocktail (Na/K phosphate buffer, containing 5,5′-dithiobis(2-nitrobenzoic acid) (DTNB, final concentration 0.4 mM) and butyrylthiocholine iodide (Sigma, final concentration 5 mM) or acetylthiocholine iodide (Sigma, final concentration 0.5 mM) were added and the changes in absorbance was monitored at one minutes intervals at 412 nm wavelength. For the AChE activity, the cocktail also contained the selective BuChE inhibitor ethopropazine (Sigma, final concentration 0.1 mM).

[1] = tested on: purified human placental ChAT; design: method as in PMID 3361452; settings: cited from earlier work
recombinant human ChAT = molecular target: T2, recombinant human ChAT (Homo sapiens, UniProt P28329); test: Colorimetric ChAT assay with recombinant human ChAT protein; format: biochemical
T2 construct: His6 (N); made in house; host or cells: E. coli BL21 Rosetta2
T2 sequence (P28329 1-630 isoform P28329-3): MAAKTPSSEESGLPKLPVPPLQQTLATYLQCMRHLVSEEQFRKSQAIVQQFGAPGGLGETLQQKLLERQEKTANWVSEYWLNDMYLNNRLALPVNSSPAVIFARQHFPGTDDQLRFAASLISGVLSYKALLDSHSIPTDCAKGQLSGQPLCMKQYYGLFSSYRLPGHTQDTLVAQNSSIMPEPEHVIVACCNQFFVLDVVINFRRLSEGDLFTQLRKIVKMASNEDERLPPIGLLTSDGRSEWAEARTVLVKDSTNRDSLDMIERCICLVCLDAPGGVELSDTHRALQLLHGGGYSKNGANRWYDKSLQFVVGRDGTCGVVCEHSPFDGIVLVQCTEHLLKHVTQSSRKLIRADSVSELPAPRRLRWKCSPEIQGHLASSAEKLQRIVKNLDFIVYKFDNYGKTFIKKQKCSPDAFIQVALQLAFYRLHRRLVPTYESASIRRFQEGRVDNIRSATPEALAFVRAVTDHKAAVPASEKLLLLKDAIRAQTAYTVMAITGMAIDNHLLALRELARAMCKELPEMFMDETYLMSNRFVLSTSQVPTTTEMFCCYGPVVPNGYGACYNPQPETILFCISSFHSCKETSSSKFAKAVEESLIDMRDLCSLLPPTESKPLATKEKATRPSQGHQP
Experimental: ChAT activity was measured with a new colorimetric assay as described previously, using recombinant ChAT protein. Briefly, 20 μL/wells of 1.5 μg/ml of the recombinant ChAT was incubated with 20 μL/well of different concentrations of α-NETA for 30 minutes at room temperature in dilution buffer (10 mM Tris-HCl, pH 7.4, 150 mM NaCl, 1.0 mM EDTA, 0.05% (v/v) Triton X-100). […]
Then 50 μl of a cocktail-B [phosphate buffered saline, containing 0.93 U/ml choline oxidase (C5896, Sigma-Aldrich), 1/5000 U streptavidin-horseradish peroxidase, 6.3 mM phenol, and 3 mM 4-aminoantipyrine (A4382, Sigma-Aldrich)] was added to each sample including the standards. Absorbance was then monitored using a microplate spectrophotometer reader (Infinite M1000, Tecan) at 500 nm wavelength. ChAT activity (nmol/min/mg of recombinant protein) was calculated according to the following formula: ChAT activity [ChBL-ChS]/t/m, where ChBL is the measured number of mole of choline in control wells lacking the inhibitor and ChAT, ChS is the measured number of mole of choline in the sample wells, the t is the incubation time and m is the mass of ChAT protein added per sample well. […]

AChE = molecular target: T3, AChE (Homo sapiens, UniProt P22303); test: Modified Ellman's colorimetric assay, AChE activity; format: biochemical
T3 construct: purchased Sigma
T3 sequence (P22303 32-614): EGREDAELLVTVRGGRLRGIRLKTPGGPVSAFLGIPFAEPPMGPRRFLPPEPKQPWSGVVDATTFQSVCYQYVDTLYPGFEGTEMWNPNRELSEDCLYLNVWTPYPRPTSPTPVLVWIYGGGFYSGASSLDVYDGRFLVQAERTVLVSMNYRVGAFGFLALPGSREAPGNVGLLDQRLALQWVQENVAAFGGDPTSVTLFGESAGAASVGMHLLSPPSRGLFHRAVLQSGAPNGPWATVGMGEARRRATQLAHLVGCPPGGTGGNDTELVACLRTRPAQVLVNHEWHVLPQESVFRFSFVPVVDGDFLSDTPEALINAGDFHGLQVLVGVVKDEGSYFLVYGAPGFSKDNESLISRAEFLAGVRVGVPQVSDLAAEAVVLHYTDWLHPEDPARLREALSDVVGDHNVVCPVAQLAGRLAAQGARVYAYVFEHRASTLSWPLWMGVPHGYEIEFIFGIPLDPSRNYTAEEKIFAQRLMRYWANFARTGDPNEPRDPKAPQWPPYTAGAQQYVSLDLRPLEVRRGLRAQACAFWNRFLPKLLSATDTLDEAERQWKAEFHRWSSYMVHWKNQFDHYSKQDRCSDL
Experimental: as §1

| SMILES | Actual pIC50 / Observed pIC50 (ChAT) | also measured |
| --- | --- | --- |
| C[n+]1ccc(/C=C/c2cccc3ccccc23)cc1 [Compound 1] | 6.33 | – |
| C[n+]1ccc(/C=C/c2cccc(Br)c2)cc1 [Compound 2] | 5.83 | – |
| C[n+]1ccc(/C=C/c2cccc(Cl)c2)cc1 [Compound 3] | 5.64 | – |
| C[n+]1ccc(/C=C/c2ccc(Br)cc2)cc1 [Compound 4] | 5.59 | – |
| C[n+]1ccc(/C=C/c2ccc(Cl)c(Cl)c2)cc1 [Compound 5] | 5.48 | – |
| C[n+]1ccc(/C=C/c2ccc(Cl)cc2)cc1 [Compound 6] | 5.16 | – |
| C[n+]1ccc(/C=C/c2ccccc2)cc1 [Compound 7] | 4.83 | – |
| Cc1ccc(/C=C/c2cc[n+](C)cc2)cc1 [Compound 8] | 4.70 | – |
| C[n+]1ccc(/C=C/c2ccc(F)cc2)cc1 [Compound 9] | 4.68 | – |
| C[n+]1ccc(/C=C/c2ccccc2Cl)cc1 [Compound 10] | 4.56 | – |
| C[n+]1ccc(/C=C/c2cccc([N+](=O)[O-])c2)cc1 [Compound 11] | 3.83 | – |
| C[n+]1ccc(/C=C/c2ccc([N+](=O)[O-])cc2)cc1 [Compound 12] | 3.70 | – |
| Cc1c[n+](C)ccc1/C=C/c1cccc2ccccc12 [Compound 13] | 6.40 | – |
| Cc1c[n+](C)ccc1/C=C/c1cccc(Cl)c1 [Compound 14] | 5.80 | – |
| Cc1c[n+](C)ccc1/C=C/c1ccc(Cl)c(Cl)c1 [Compound 15] | 5.77 | – |
| Cc1c[n+](C)ccc1/C=C/c1ccccc1 [Compound 16] | 5.30 | – |
| Cc1c[n+](C)ccc1/C=C/c1ccccc1Cl [Compound 17] | 4.77 | – |
| Cc1c[n+](C)ccc1/C=C/c1c[nH]c2ccccc12 [Compound 18] | 4.41 | – |
| OCC[n+]1ccc(/C=C/c2cccc(Br)c2)cc1 [Compound 19] | 5.38 | – |
| OCC[n+]1ccc(/C=C/c2cccc(Cl)c2)cc1 [Compound 20] | 5.62 | – |
| C[n+]1ccc(/C=C/c2ccccc2)c2ccccc21 [Compound 21] | 5.46 | – |
| C[n+]1ccc(/C=C/c2cccs2)c2ccccc21 [Compound 22] | 3.60 | – |
| C[n+]1ccc(/C=C/c2cccnc2)c2ccccc21 [Compound 23] | 3.22 | – |
| OCC[n+]1ccc(/C=C/c2cccc3ccccc23)c2ccccc21 [Compound 24] | 6.28 | – |
| OCC[n+]1ccc(/C=C/c2ccccc2)c2ccccc21 [Compound 25] | 5.54 | – |
| C[N+](C)(C)CCC(=O)c1cccc2ccccc12.[I-] [α-NETA, 2-(α-naphthoyl) ethyltrimethylammonium iodide] | – | inhibition at 3 µM (BuChE; at a concentration of 3 μM): 10%; selectivity for ChAT relative to BuChE (BuChE; based on IC50 ratios): ~ 378 fold; pIC50 (BuChE; pooled human plasma, 30 min preincubation): ~4.52 and 4.48; Observed pIC50 (reported pIC50) [1]: 5.05; pIC50 ([1]; read-out: IC50 (reported, ChAT)): ~5.05; higher potency as ChAT inhibitor in this system than reported (recombinant human ChAT; IC50 88 nM versus reported ~9 μM): ~ 100 folds; pIC50 (recombinant human ChAT; recombinant human ChAT, 30 min preincubation): ~7.06 and 7.06; pIC50 (AChE; 30 min preincubation): ~4.52 and 4.47; inhibition at 10 µM (AChE; at a concentration of 10 μM): 10%; selectivity for ChAT compared to AChE (AChE; based on IC50 ratios): 388 fold and ~ 388 fold |
